Test results from publication PMC9061822, “A novel SRSF3 inhibitor, SFI003, exerts anticancer activity against colorectal cancer by modulating the SRSF3/DHCR24/ROS axis” (Cell Death Discovery, 2022).
Entries after “also recorded” stand apart in the source; their conditions may differ. Read-outs that look alike come from different tables or passages of the source.

Assays:
ROS = assay: Detection of ROS (DCFH-DA) in HCT-116 and SW480 cells; assay type: cell-based, Human; settings: 72 h; for effect on SFI003-induced ROS: 20 μM SFI003 with 5 mM NAC or 100 μM Trolox
Description: Following treatment with SFI003 or siRNA, the cells were washed with PBS and incubated with DCFH-DA for 20 min at 37 °C. After washing three times, the cells were collected and measured at 488 nm excitation and 525 nm emission by a microplate reader (Tecan, Switzerland) according to the manufacturer’s instructions (Beyotime, Shanghai, China). The protein concentrations were determined by using a BCA assay (TaKaRa, Kusatsu, Japan).

HCT-116 and SW480 cells [1] = assay: WB of EMT and apoptosis markers with ROS scavengers; assay type: cell-based, Human; settings: 20 μM SFI003 with 5 mM NAC or 100 μM Trolox, 72 h
Description: (§1) After cell lysates were prepared, protein concentrations were determined by a BCA assay (TaKaRa, Kusatsu, Japan). Equal amounts of protein were separated by SDS–PAGE and transferred to polyvinylidene difluoride membranes. After normalization, the blots were probed with appropriate antibodies, as described previously.

HCT-116 cells = assay: MTT assay in HCT-116 cells; assay type: cell-based, Human
Description: (§2) Human CRC cell lines were purchased from the American Type Culture Collection (VA, USA). HCT-116 cells were cultured in DMEM (HyClone, Utah, USA) containing 10% fetal bovine serum (FBS; Gibco, NY, USA). SW480 cells were cultured in RPMI 1640 medium (HyClone, Utah, USA) containing 10% FBS. All cells were cultured in an incubator (Thermo, CA, USA) at a constant temperature of 37 °C and 5% CO2. N-Acetylcysteine (NAC), Trolox, MLN4924, 5-Fu, and capecitabine were purchased from MedChemExpress LLC (Shanghai, China). MG132 was purchased from Santa Cruz Biotech (CA, USA). Chloroquine (CHQ) was purchased from Sigma (CA, USA). Rapamycin was purchased from Beyotime (Shanghai, China). Primary antibodies against SRSF3 and E-Cadherin were purchased from Abcam (Cambridge, UK). Primary antibodies against N-Cadherin, Caspase 3, DHCR24, CAT, Akt and phospho-Akt (Ser473) were purchased from Cell Signaling Technology (MA, USA). Primary antibodies against β-actin, mTOR, and phospho-mTOR ([…]) were purchased from Beyotime (Shanghai, China). Primary antibody against Vimentin was purchased from Proteintech (Wuhan, China). Primary antibody against Bcl-2 was purchased from Santa Cruz Biotech (CA, USA). Primary antibody against Flag was purchased from MBL Beijing Biotech (Beijing, China). CRC cells were transfected with 100 nM siRNA or treated with various doses of SFI003 for 24 h, 48 h, or 72 h before being subjected to MTT assay as described previously.

SW480 cells = assay: MTT assay in SW480 cells; assay type: cell-based, Human
Description: as §2

HCT-116 xenografts = HCT-116 xenografts in SCID mice; assay type: in vivo; settings: two weeks; for number of tumors that disappeared: HCT-116 xenografts
Description: (§3) To explore the effect of SFI003 on the growth of CRC, approximately 3 × 10^6 HCT-116 cells or 8 × 10^6 SW480 cells were collected and mixed with Matrigel (Corning, NY, USA) at a 1:1 ratio by volume and then injected into the lower back region of mice. When tumors were palpable, mice were randomly divided into four groups. One group received vehicle as a control, while the other three groups were orally administered SFI003 at a dosage of 100 or 200 mg/kg or capecitabine at a dosage of 100 mg/kg for two continuous weeks. The tumor sizes and mouse body weights were monitored every other day. At the end of the experiment, tumors and blood samples were collected for further studies. The tumor size was evaluated according to Eq.: tumor size (mm^3) = (length × width^2) × 0.5.

SW480 xenografts = SW480 xenografts in SCID mice; assay type: in vivo
Description: as §3

[2] = Pharmacokinetics in ICR mice; assay type: in vivo; settings: mouse, plasma
Description: 29 the blood samples by centrifuging at 5,000 rpm under 4℃ for 5 min. […]
(§4) 33 or tissue sample was added into 100 µl acetonitrile containing internal standard
(§5) 34 Tolbutamide. The mixture was vortexed for 3 min and centrifuged at 13,000 rpm for 10
(§6) 35 min. An aliquot of 10 µl resulting supernatant was injected to LC -MS/MS system
(§7) 36 (API4000 QTrap; AB Sciex) for compound analysis. The analytes were separated in a
(§8) 37 Venusil XBP-C18 column (2.1×50 mm, 5 μm; Agela, China) using the mixture of 5mM
(§9) 38 NH4OAc-0.1% formic acid (A) and methanol (B) as mobile phase. The gradient
(§10) 39 condition was: 1.3 min, 2%B; 2.0 min, 90%B; 3.5 min, 90%B; 3.8 min, 2%B. The elutes
(§11) 40 were detected by MS/MS spectrometry using ESI positive mode with m/z 271.1>172.2,
(§12) 42 SFI003. […]
52 Druggability evaluation of SFI003
53 Next, we evaluated the druggability of SFI003. We first examined the
54 pharmacokinetic properties of SFI003 in mice. We measured the plasma concentration
55 of SFI003 in mice after oral administration of 100 mg/kg SFI003.

[3] = Tissue distribution in ICR mice; assay type: in vivo; settings: oral 100 mg/kg
Description: 29 the blood samples by centrifuging at 5,000 rpm under 4℃ for 5 min. For
30 determination of SFI003 concentration in mice tissues, the male ICR mice (n=3) were
31 orally administrated with 100mg/kg SFI003, and the liver and kidney of the mice were
32 collected at 0.25, 0.5, 1, 2, 4, 8, and 12 h after administration. An aliquot of 25 µl plasma
as §4, §5, §6, §7, §8, §9, §10, §11, §12

[4] = Metabolic stability in human liver microsomes; assay type: in vitro ADME
[5] = Metabolic stability in rat liver microsomes; assay type: in vitro ADME
Plasma protein binding = assay type: in vitro ADME; settings: read-out: plasma protein binding rate (converted)
[6] = system: CCDC50S, p53α and p53β mRNA; assay: RT-PCR of SRSF3 target gene mRNA in HCT-116 and SW480 cells; assay type: cell-based, Human; settings: 20 μM, 72 h
Description: (§13) HCT-116 and SW480 cells were transfected with 100 nM siRNA for 48 h or treated with SFI003 for 72 h. Total RNA was isolated by using TRIzol (Invitrogen, CA, USA) according to the manufacturer’s instructions and then was reversely transcribed into cDNA with random primers (TaKaRa, Kusatsu, Japan) and RT-Kit (Thermo, CA, USA). The cDNA was amplified by PCR using the primers listed in Supplementary Table 1.

[7] = Serum biochemical analysis / tolerability in treated mice; assay type: in vivo
Description: as §3

HCT-116 and SW480 cells [8] = assay: Wound-healing and Transwell migration assays; assay type: cell-based, Human; settings: HCT-116 and SW480, 10 μM, 24 h
Description: HCT-116 and SW480 cells were seeded into six-well plates in confluent monolayers. Then, the cells were transfected with 100 nM siRNA or treated with 10 μM SFI003. Scratch wounds were created using a sterilized tip in 0.5% serum medium. Images were captured at 0 h, 24 h, and 72 h after wounding. Three independent measurements of wound width were conducted.
HCT-116 and SW480 cells (1 × 10^5) were resuspended in 200 µl medium containing 0.1% serum and then added to the upper compartment of migration chambers (Costar, Corning, NY, USA). The bottom chamber was filled with 600 µl cell culture medium with 20% FBS as an attractant. After coculture for 24 h or 48 h, the cells were fixed in 4% paraformaldehyde and stained with 0.1% crystal violet. The stained cells in 8 random fields were counted at ×100 magnification. Three independent measurements were conducted.

DHCR24 = assay: RT-PCR and WB of DHCR24 in HCT-116 and SW480 cells; assay type: cell-based, Human; settings: HCT-116 and SW480, 20 μM, 72 h
Description: as §13, §1

Akt-mTOR pathway = assay: WB of p-Akt and p-mTOR in HCT-116 and SW480 cells; assay type: cell-based, Human; settings: HCT-116 and SW480, 20 μM, 72 h
Description: as §1

[9] = Pharmacokinetics in ICR mice; assay type: in vivo; settings: mouse, plasma, iv, 10 mg/kg
SRSF3 [10] = biological target: T1, SRSF3 (Homo sapiens, UniProt P84103); assay: Western blot of SRSF3 protein in HCT-116 and SW480 cells; assay type: cell-based; parameters: endogenous in cells; host or cells: HCT-116 and SW480; settings: HCT-116 and SW480 cells, various doses, 72 h
T1 sequence (P84103 1-164): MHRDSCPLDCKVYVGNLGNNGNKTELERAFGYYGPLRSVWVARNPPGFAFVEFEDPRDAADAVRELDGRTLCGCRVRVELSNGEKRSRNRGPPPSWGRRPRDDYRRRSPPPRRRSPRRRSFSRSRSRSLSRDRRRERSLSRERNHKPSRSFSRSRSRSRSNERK
Description: as §1

SRSF3 [11] = biological target: T1, SRSF3; assay: Biological experimental assays of screened compounds against SRSF3; settings: screening hit among 22 selected compounds
[12] = read-out: intrinsic clearance (converted)
[13] = SFI003-treated tumor-bearing mice

CC(=O)N[C@@H](CS)C(=O)O [NAC, N-Acetylcysteine]
effect on SFI003-induced ROS (ROS): significantly reversed | effect on SFI003-induced apoptosis and migration disability (HCT-116 and SW480 cells [1]): reversed

Cc1c(C)c2c(c(C)c1O)CCC(C)(C(=O)O)O2 (stereo not drawn) [Trolox]
effect on SFI003-induced ROS (ROS): significantly reversed | effect on SFI003-induced apoptosis and migration disability (HCT-116 and SW480 cells [1]): reversed

COc1ccc(-c2csc(N/N=C(\C)c3nc4ccccc4[nH]3)n2)cc1 [SFI003]
cytotoxicity after SRSF3 silencing (HCT-116 cells; HCT-116, SRSF3 siRNA 24 h, then 10 μM for 72 h): eliminated | inhibition of proliferation (HCT-116 cells; HCT-116, various doses, 24, 48 and 72 h): dose- and time-dependent | IC50 compared with the other synthesized compounds (HCT-116 cells; HCT-116 cells, 72 h): the most potent compound with the lowest IC50 value | IC50 (HCT-116 cells; Homo sapiens, HCT-116 cells, 72 h): 8.78 µM | IC50 (SW480 cells; Homo sapiens, SW480 cells, 72 h): 48.7 µM | cytotoxicity after SRSF3 silencing (SW480 cells; SW480, SRSF3 siRNA 24 h, then 50 μM for 72 h): eliminated | inhibition of proliferation (SW480 cells; SW480, various doses, 24, 48 and 72 h): dose- and time-dependent | growth of HCT-116 xenografts (HCT-116 xenografts; 100 or 200 mg/kg orally, dose-dependent): efficiently suppressed | number of tumors that disappeared (HCT-116 xenografts; 100 mg/kg orally, 100 mg/kg): two and two of six | number of tumors that disappeared (HCT-116 xenografts; 200 mg/kg orally): three | growth of SW480 xenografts (SW480 xenografts; 100 or 200 mg/kg orally, two weeks, dose-dependent): efficiently suppressed | body weight (SW480 xenografts; SW480 tumor-bearing mice, oral, two weeks): slight reduction | antitumor activity compared with capecitabine (SW480 xenografts; SW480 xenografts, oral, two weeks, capecitabine 100 mg/kg): stronger inhibitory activity than capecitabine; also recorded: more potent antitumor efficacy than capecitabine | concentration of SFI003 in tumors versus plasma (SW480 xenografts; mice grafted with SW480 cells, 100 mg/kg, 2 h): close to the plasma | bioavailability ([2]; oral, p.o. 100 mg/kg vs i.v. 10 mg/kg, read-out: F (bioavailability)): 52.5% | AUC(0-inf) ([2]; po, 100 mg/kg): 30900 ng·h/mL | AUC(0-t) ([2]; po, 100 mg/kg): 30900 ng·h/mL | Tmax ([2]; po, 100 mg/kg): 2 h | half-life ([2]; po, 100 mg/kg): 1.86 h | MRT inf ([2]; po, 100 mg/kg, read-out: MRTINF_obs): 4.66 h | Cmax ([2]; po, 100 mg/kg): 4440 ng/mL | distribution to liver and kidney [3]: highly accumulated | half time [4]: 31.50 min | CLint scaled [4, 12]: 55.2 mL/min/kg | half time [5]: 53.31 min | CLint scaled [5, 12]: 46.7 mL/min/kg | fraction unbound (Plasma protein binding): 0.586 | mRNA level of CCDC50S [6]: markedly reduced | mRNA level of p53α [6]: markedly reduced | mRNA level of p53β [6]: elevated | ROS level (ROS; HCT-116 and SW480, 10, 20 and 50 μM, dose-dependent): significantly enhanced | serum ALP, ALT, AST, GGT [7, 13]: no alteration | serum CRE and URE [7, 13]: moderate | tolerability in vivo ([7]; mice): well tolerated | migration of CRC cells (HCT-116 and SW480 cells [8]): repressed | DHCR24 mRNA and protein (DHCR24): inhibited | activities of Akt (p-Akt) and mTOR (p-mTOR) (Akt-mTOR pathway): inhibited | AUC(0-inf) [9]: 5890 ng·h/mL | AUC(0-t) [9]: 5890 ng·h/mL | half-life [9]: 0.4 h | MRT inf ([9]; read-out: MRTINF_obs): 0.44 h | Vd ([9]; read-out: Vss): 0.75 L/kg | level of SRSF3 protein (SRSF3 [10]): apparently reduced

C/C(=N\Nc1nc(-c2ccc(O)cc2)cs1)C1=CSCN1 [compound 6]
inhibitory activity against SRSF3 (SRSF3 [11]): satisfactory inhibitory activity
